Key:
[1] = Molar enthalpy of transition or fusion; conditions: Crystal; DSC
[2] = for vapor or sublimation pressure: Liquid, Closed cell (Static) method
[3] = molar heat capacity at constant pressure; conditions: 101.33 kPa, Crystal, DSC

O=C(O)CC(O)(CC(=O)O)C(=O)O [citric acid]
Conditions	Molar enthalpy of transition or fusion [kcal/mol]
[1]	14.1

Conditions	Normal melting temperature [°C]
[2], Crystal, DTA	151.8

[3]
Conditions	molar heat capacity at constant pressure [J/K/mol]
324.9 K	239.8
328.2 K	243
331.5 K	245.9
334.9 K	248.6
338.2 K	251.2
341.5 K	253.6
344.9 K	255.9
348.2 K	258.2
351.5 K	260.4
354.9 K	262.5
358.2 K	264.6
361.5 K	266.6
364.9 K	268.7
368.2 K	270.7
371.5 K	272.6
374.9 K	274.5
378.2 K	276.2
381.5 K	278.1
384.9 K	279.9
388.2 K	281.8
391.5 K	283.7
394.9 K	286

CCCCO [butan-1-ol]
[2]
Conditions	vapor or sublimation pressure [kPa]
333.2 K	8.1
348.2 K	17.5

Reference: the NIST ThermoML archive (doi:10.1021/acs.jced.8b00064)
